From article PMC6176987, “Correction of cognitive deficits in mouse models of Down syndrome by a pharmacological inhibitor of DYRK1A” (Disease Models & Mechanisms, 2018)

What was measured:
[1] = system: Tg(Dyrk1a) mice brain phosphoproteins; assay: Brain phosphoproteomic analysis, Tg(Dyrk1a) mice; format: in vivo, mouse; details: 20 mg/kg daily i.p. 19 days
From the text: All tissue samples were processed for phosphoproteomics analysis based on the enrichment and separation of proteotypic phosphopeptides with HILIC (see Materials and Methods). In Tg(Dyrk1a) and Ts65Dn mice, the hippocampus, cortex and cerebellum yielded 1384, 1523 and 2004 peptides, respectively, corresponding to 886, 948 and 1229 proteins (Table 1; Tables S1-S13).
Only biological processes common to the three brain regions and both models are presented (complete biological processes are listed in Tables S11-S13).
DYRK1A substrates and their respective phosphorylation sites were identified in the phosphoproteome based on the DYRK1A phosphorylation consensus sequence R-P-x(1,3)-S/T-P ([Himpel et al., 2000]). […] Biological process enrichments of each cluster were assessed by using ToppCluster web server application. […]
Protein Identification and Quantification. […]
Precursor Mass Tolerance 10 ppm, Fragment Mass Tolerance 20 mmu, Dynamic Modifications were Oxidation of M (+15.995 Da), Deamidation of N, Q (+0.984 Da), Phosphorylation of S (+79.966 Da) and Static Modifications were iTRAQ8plex at any N-Terminus, K, Y (+304.205 Da) and Methylthio at C (+45.988 Da). […] The Reporter Ion Quantifier node included a custom iTRAQ 8plex (Thermo Scientific Instruments) Quantification Method, integration window tolerance of 10 ppm with Most Confident Centroid. […]

CDK2/cyclin A = CDK2/cyclin A (Homo sapiens, UniProt P24941); assay: Recombinant protein kinase assay, CDK2/cyclin A; format: biochemical; details: 15 µM ATP
Tg(Dyrk1a) mice = assay: Y-maze working memory in Tg(Dyrk1a) mice; format: in vivo, mouse; details: L41-treated Tg(Dyrk1a) mice
DYRK1A = biological target: T1, DYRK1A (Mus musculus, UniProt Q61214); assay: Brain DYRK1A catalytic activity after treatment, Tg(Dyrk1a) mice; format: in vivo
T1 construct: DYRK1A was purified from brain extracts by immunoprecipitation; from tissue; host or cells: mouse brain (wt, Tg(Dyrk1a), Ts65Dn)
Method: Protein kinase assays to measure the catalytic activity of DYRK1A in the brains of the animals treated with or without drugs were performed as follows: frozen half brains were homogenized in lysis buffer (1.2 ml/half brain) using Precellys® homogenizer tubes. After centrifugation at 2800 g for 2×15 s, 1 mg brain extract was incubated with 2 µg DYRK1A (H00001859 M01, Interchim) or GSK3-β (MBS8508391, Emelca Bioscience, France) antibodies at 4°C for 1 h under gentle rotation. Then, 20 µl protein G agarose beads (Thermo Fisher Scientific, France), previously washed three times with bead buffer (50 mM Tris pH 7.4, 5 mM NaF, 250 mM NaCl, 5 mM EDTA, 5 mM EGTA, 0.1% Nonidet P-40 and protease inhibitor cocktail from Roche, France), were added to the mix and gently rotated at 4°C for 30 min. After a 1 min spin at 10,000 g and removal of the supernatant, the pelleted immune complexes were washed three times with bead buffer, and a last time with Buffer C (60 mM β-glycerophosphate, 30 mM p-nitrophenolphosphate, 25 mM Mops pH 7.2, 5 mM EGTA, 15 mM MgCl2, 2 mM dithiothreitol, 0.1 mM sodium orthovanadate, 1 mM phenylphosphate, protease inhibitor cocktail). DYRK1A or GSK-3 immobilized on beads were assayed in buffer C as described in the Supplementary Materials and Methods with Woodtide ([…]) (1.5 µg/assay) or GSK3-tide ([…]pSED-EEE, where pS stands for phosphorylated serine) as substrates.

Compound: O=C1NC(Nc2ccccc2)=N/C1=C\c1ccc2c(c1)OCO2 [L41]
- SYN1 Ser551 phosphorylation following treatment [1]: dephosphorylated
- IC50 (CDK2/cyclin A): > 10 µM
- Effect on working memory (Y-maze) (Tg(Dyrk1a) mice): no restoring effect
- Tg(Dyrk1a) brain DYRK1A activity (DYRK1A; 24 h after the last treatment of 19 days): normalized to wt levels
- Tg(Dyrk1a) brain DYRK1A activity (DYRK1A; 48 h after the last treatment of 19 days): no more effects
- DYRK1A inhibition in Tg(Dyrk1a) mice brains (DYRK1A; 5 days of treatment): not significant
- Tg(Dyrk1a) brain DYRK1A activity (DYRK1A; 12 days of treatment): normalized
- Reduction of brain DYRK1A activity (DYRK1A; 19 days daily i.p., normalized to GSK-3α/β activity): ~30%
- Tg(Dyrk1a) brain DYRK1A activity (DYRK1A; 19 days of treatment): normalized
